Results: a melting point compilation (Tetko et al.; mined from patent text by program, amines drawn as free bases though some values may be those of a salt)

Structure (SMILES) | melting point [°C]
COC(=O)COc1ccc2cc(CNC(=O)c3cnn(-c4ccc(Cl)cc4)c3C(F)(F)F)ccc2c1 | 174 to 176
C[C@]1(COc2ccc(N3CCC(OCc4ccc(OC(F)(F)F)cc4)CC3)cc2)Cn2cc([N+](=O)[O-])nc2O1 | 214 to 218
Nc1cn(-c2cccnc2)nc1Cl | 70 to 72
Cn1nc(-c2cc(C(C)(C)C)c(O)c(C(C)(C)C)c2)c2cccnc21 | 152 to 154
COc1cc(C(C)(C)C)c(OC(C)=O)c(C(C)(C)C)c1 | 96.6
O=C(O)CCCCCCCCc1ccc(Cl)cc1 | 73 to 75
CCN1CCC(c2n[nH]c3cc(F)ccc23)CC1 | 175 to 178
CC(C)=CC(=O)N[C@H]1CC[C@H](CCN2CCC(c3cccc4c3CCO4)CC2)CC1 | 177
